{"source": "patent US6838580B2", "about": "“Opioid derivative” (Teikoku Seiyaku Co., Ltd., priority 2002, dated 2005)", "key": {"δ-opioid receptor [1]": {"target": "T1, δ-opioid receptor (Rattus norvegicus, UniProt P33533)", "T1 construct": "synaptic membrane fraction obtained from the rat brain tissue; from tissue; host or cells: Sprague-Dawley rat brain without cerebellum, synaptic membrane (P2) fraction", "T1 sequence (P33533 whole entry)": "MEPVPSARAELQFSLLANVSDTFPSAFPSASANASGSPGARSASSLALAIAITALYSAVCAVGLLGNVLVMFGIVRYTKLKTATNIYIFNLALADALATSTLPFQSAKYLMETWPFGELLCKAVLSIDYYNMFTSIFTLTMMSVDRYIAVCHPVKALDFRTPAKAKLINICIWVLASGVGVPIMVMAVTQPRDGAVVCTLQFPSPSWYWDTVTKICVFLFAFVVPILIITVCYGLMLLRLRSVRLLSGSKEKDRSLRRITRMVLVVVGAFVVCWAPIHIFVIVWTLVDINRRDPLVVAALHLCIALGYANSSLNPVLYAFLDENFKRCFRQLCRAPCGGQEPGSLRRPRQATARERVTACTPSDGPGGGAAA", "assay": "Competitive receptor binding assay, synaptic membrane fraction, [3H]DPDPE", "settings": "rat brain synaptic membrane, read-out: Affinity of receptor (Ki, nM) δ", "description": "Regarding the opioid peptide derivatives synthesized in Examples and Reference Examples, the μ- and δ-opioid receptor affinities were obtained by a competitive receptor assay using the synaptic membrane fraction obtained from the rat brain tissue according to the known methods. That is, Sprague-Dawley rats having an average weight of 150-180 g were killed by decapitation, the brain tissue from which cerebellum had been removed was homogenized in 0.32M sucrose and 1 mM HEPES (pH 7.5) containing 50 μg/ml soybean trypsin inhibitor, fractionated and centrifuged to obtain the synaptic membrane fraction (P2 fraction), which was pre-incubated in 50 mM HEPES (pH 7.5) containing 100 mM NaCl, 0.1 mM GDP and soybean trypsin inhibitor to remove endogenous ligands from the P2 fraction.\nA competitive receptor binding assay (Radiolabeled receptor assay: RRA) based on an exchange reaction between a radioactive ligand for the synaptic membrane fraction and a peptide derivative to be tested was performed by using tritium-labeled [^3H]DAGO which is a μ-opioid receptor agonist and tritium-labeled [^3H]DPDPE which has the high δ-opioid receptor selectivity, and incubating an aliquot of the synaptic membrane with the peptide derivative to be tested for a period of time. Upon this, an exchange reaction between a ligand was performed under constant conditions, the radiation remaining in the synaptic membrane fraction was measured, and an amount of the ligand adsorbed onto the synaptic membrane fraction is calculated. By assuming that binding with a receptor occurs in competition between a radioactive ligand and an end ligand, the concentration (IC50) at which the maximum specific binding of the radioactive ligand is 50% inhibited was obtained, from which the affinity constant (Ki) was calculated by a method of Cheng et al. (Biochem. Pharmcol., 22, 3099(1973))."}, "δ-opioid receptor [2]": {"target": "T2, δ-opioid receptor (Mus musculus, UniProt P32300)", "T2 construct": "using mouse seminiferous tract in place of guinea pig ileum; from tissue; host or cells: mouse seminiferous tract (vas deferens, MVD), organ bath", "T2 sequence (P32300 whole entry)": "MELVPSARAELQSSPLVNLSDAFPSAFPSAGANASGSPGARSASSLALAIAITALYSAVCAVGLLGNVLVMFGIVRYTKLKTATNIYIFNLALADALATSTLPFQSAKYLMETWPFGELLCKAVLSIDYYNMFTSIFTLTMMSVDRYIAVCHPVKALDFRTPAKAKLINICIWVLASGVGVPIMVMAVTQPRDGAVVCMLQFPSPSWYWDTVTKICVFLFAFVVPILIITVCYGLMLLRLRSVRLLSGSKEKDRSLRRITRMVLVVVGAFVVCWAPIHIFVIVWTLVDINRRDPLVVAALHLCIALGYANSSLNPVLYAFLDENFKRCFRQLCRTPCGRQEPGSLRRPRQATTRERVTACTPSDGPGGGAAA", "assay": "Mouse seminiferous tract (MVD) assay, inhibition of electrically stimulated constriction", "assay_type": "cell-based", "settings": "agonist activity, read-out: MVD (IC50 ± S.E.)"}, "SD Male rats [3]": {"test_system": "SD Male rats", "assay": "Analgesic effect, Randoll-Seritto hind limb pressure method, intracerebroventricular administration", "assay_type": "in vivo", "settings": "rat, i.c.v.", "excerpt": "(§1) SD Male rats, weighing 110 to 130 g, were used. One group consisted of five rats. The analgesic effects were examined by a Randoll-Seritto method. […] The threshold was expressed in mm Hg. During the measurement, the upper limit of the pressure applied to a hind limb was 100 mm Hg in order to avoid damage of the tissues.\n1) When performing intracerebroventricular administration (i.c.v.), a rat was fixed to a brain stereotactic fixing apparatus under slight ether anesthesia, the skin at a head was dissected, and an administration cannula was inserted into a place at a transverse of […] from a bregma position and a depth of 3.5 to 4.0 mm. The administration volume was 10 μl/animal. Observation of the analgesic action was performed before administration, and at 30 minutes, and 1, 2, 3, 4 and 5 hours after administration. Doses of both compounds were 0.1, 1 and 10 μg/animal. Separately, a group to which 5 mg/kg of naltrexone hydrochloride was administered subcutaneously immediately after compound of Ex.1 10 μg/animal i.c.v and a group to which 5 mg/kg of naltrexone hydrochloride was administered subcutaneously immediately after compound of Ex.4 10 μg/animal i.c.v. was made. In addition, as morphine hydrochloride at a dose of 3 μg/animal i.c.v. group was used as a positive control group and a physiological saline 10 μl/animal i.c.v. group as a control group was made, respectively.\n(§2) In order to perform a significant difference test between respective administration groups and control groups, and between values at respective times before administration and after administration, a Dunnet multiple comparative test method was used. In the statistical processing for performing a significant difference test between morphine hydrochloride administration groups and control groups, Student t-test was used. For performing a significant difference test between values at respective times before administration and after administration in morphine hydrochloride administration groups, a Dunnet multiple comparative test method was used. A significant level was at 5 or lower % risk rate (two-tailed test)."}, "SD Male rats [4]": {"test_system": "SD Male rats", "assay": "Analgesic effect, Randoll-Seritto hind limb pressure method, intravenous administration", "assay_type": "in vivo", "settings": "rat, i.v.", "description": "as §1\n2) When administered intravenously (i.v.), a volume of 2 ml/kg weight was administered to a tail vein and, when administered subcutaneously (s.c.), a volume of 2 ml/kg weight was subcutaneously administered to the back. In the case of intravenous administration, a 1 mg/kg, 3 mg/kg or 10 mg/kg compound of Ex.1 administration group, a 1 mg/kg, 3 mg/kg or 10 mg/kg compound of Ex.4 administration group, a 2 ml/kg physiological saline administration group and a 5 mg/kg morphine hydrochloride administration group were made, respectively. In the case of subcutaneous administration, a 10 mg/kg, 30 mg/kg or 100 mg/kg compound of Ex.1 administration group, a 10 mg/kg, 30 mg/kg or 100 mg/kg compound of Ex.4 administration group, a 2 ml/kg physiological saline administration group and a 5 mg/kg morphine hydrochloride administration group were made, respectively. Observation of the analgesic action was performed 15 minutes, 30 minutes, 1 hour and 2 hours after administration in the case of intravenous administration, 30 minutes, 1 hour, 2 hours and 3 hours after administration in the case of subcutaneous administration, respectively.\nas §2"}}, "note": "Entries after “also recorded” stand apart in the source; their conditions may differ. Marks after values point to notes of the source that are not given here."}
{"compound": "Cc1cc(O)cc(C)c1C[C@H](N)C(=O)NCCCCNC(=O)[C@@H](N)Cc1c(C)cc(O)cc1C.Cl.Cl", "note": "[Ex.1, 1,4-Bis-(Dmt-amino)butane.2HCl]", "values": [{"measurement": "Ki", "setting": "δ-opioid receptor [1]", "value": "53.4 ± 14.8", "unit": "nM"}, {"measurement": "IC50", "setting": "δ-opioid receptor [2]", "value": "> 10000", "unit": "nM"}, {"measurement": "Threshold (mmHg)", "setting": "SD Male rats [3]; 0.1 μg/animal, 0.5 hr", "value": "47 ± 1", "unit": "mmHg"}, {"measurement": "Threshold (mmHg)", "setting": "SD Male rats [3]; 0.1 μg/animal, 1 hr", "value": "50 ± 2", "unit": "mmHg"}, {"measurement": "Threshold (mmHg)", "setting": "SD Male rats [3]; 0.1 μg/animal, 2 hr", "value": "50 ± 1", "unit": "mmHg"}, {"measurement": "Threshold (mmHg)", "setting": "SD Male rats [3]; 0.1 μg/animal, 3 hr", "value": "48 ± 2", "unit": "mmHg"}, {"measurement": "Threshold (mmHg)", "setting": "SD Male rats [3]; 0.1 μg/animal, 4 hr", "value": "48 ± 1", "unit": "mmHg"}, {"measurement": "Threshold (mmHg)", "setting": "SD Male rats [3]; 0.1 μg/animal, 5 hr", "value": "49 ± 1", "unit": "mmHg"}, {"measurement": "Threshold (mmHg)", "setting": "SD Male rats [3]; 0.1 μg/animal, before administration", "value": "47 ± 1", "unit": "mmHg"}, {"measurement": "Threshold (mmHg)", "setting": "SD Male rats [3]; 1 μg/animal, 0.5 hr", "value": "51 ± 3", "unit": "mmHg"}, {"measurement": "Threshold (mmHg)", "setting": "SD Male rats [3]; 1 μg/animal, 1 hr", "value": "54 ± 3", "unit": "mmHg"}, {"measurement": "Threshold (mmHg)", "setting": "SD Male rats [3]; 1 μg/animal, 2 hr", "value": "49 ± 1", "unit": "mmHg"}, {"measurement": "Threshold (mmHg)", "setting": "SD Male rats [3]; 1 μg/animal, 3 hr", "value": "49 ± 2", "unit": "mmHg"}, {"measurement": "Threshold (mmHg)", "setting": "SD Male rats [3]; 1 μg/animal, 4 hr", "value": "48 ± 2", "unit": "mmHg"}, {"measurement": "Threshold (mmHg)", "setting": "SD Male rats [3]; 1 μg/animal, 5 hr", "value": "47 ± 1", "unit": "mmHg"}, {"measurement": "Threshold (mmHg)", "setting": "SD Male rats [3]; 1 μg/animal, before administration", "value": "47 ± 2", "unit": "mmHg"}, {"measurement": "Change in escape reaction threshold / analgesic effect, in words", "setting": "SD Male rats [3]; 10 μg/animal", "value": "significant increase in the threshold was seen in the 10 μg/administration group 30 minutes and 1 hour after administration"}, {"measurement": "Threshold (mmHg)", "setting": "SD Male rats [3]; 10 μg/animal + Naltrexon 5 mg/kg s.c., 0.5 hr", "value": "49 ± 1", "unit": "mmHg"}, {"measurement": "Threshold (mmHg)", "setting": "SD Male rats [3]; 10 μg/animal + Naltrexon 5 mg/kg s.c., 1 hr", "value": "53 ± 3", "unit": "mmHg"}, {"measurement": "Threshold (mmHg)", "setting": "SD Male rats [3]; 10 μg/animal + Naltrexon 5 mg/kg s.c., 2 hr", "value": "54 ± 2", "unit": "mmHg"}, {"measurement": "Threshold (mmHg)", "setting": "SD Male rats [3]; 10 μg/animal + Naltrexon 5 mg/kg s.c., 3 hr", "value": "52 ± 2", "unit": "mmHg"}, {"measurement": "Threshold (mmHg)", "setting": "SD Male rats [3]; 10 μg/animal + Naltrexon 5 mg/kg s.c., 4 hr", "value": "49 ± 1", "unit": "mmHg"}, {"measurement": "Threshold (mmHg)", "setting": "SD Male rats [3]; 10 μg/animal + Naltrexon 5 mg/kg s.c., 5 hr", "value": "50 ± 1", "unit": "mmHg"}, {"measurement": "Threshold (mmHg)", "setting": "SD Male rats [3]; 10 μg/animal + Naltrexon 5 mg/kg s.c., before administration", "value": "47 ± 2", "unit": "mmHg"}, {"measurement": "Change in escape reaction threshold / analgesic effect, in words", "setting": "SD Male rats [3]; 10 μg/animal followed by naltrexone 5 mg/kg s.c.", "value": "dissipated by naltrexone 5 mg/kg subcutaneous administration"}, {"measurement": "Threshold (mmHg)", "setting": "SD Male rats [3]; 10 μg/animal, 0.5 hr", "value": "61 ± 8*^,$ mmHg"}, {"measurement": "Threshold (mmHg)", "setting": "SD Male rats [3]; 10 μg/animal, 1 hr", "value": "61 ± 5**^,$ mmHg"}, {"measurement": "Threshold (mmHg)", "setting": "SD Male rats [3]; 10 μg/animal, 2 hr", "value": "54 ± 4", "unit": "mmHg"}, {"measurement": "Threshold (mmHg)", "setting": "SD Male rats [3]; 10 μg/animal, 3 hr", "value": "51 ± 3", "unit": "mmHg"}, {"measurement": "Threshold (mmHg)", "setting": "SD Male rats [3]; 10 μg/animal, 4 hr", "value": "52 ± 2", "unit": "mmHg"}, {"measurement": "Threshold (mmHg)", "setting": "SD Male rats [3]; 10 μg/animal, 5 hr", "value": "52 ± 1", "unit": "mmHg"}, {"measurement": "Threshold (mmHg)", "setting": "SD Male rats [3]; 10 μg/animal, before administration", "value": "48 ± 2", "unit": "mmHg"}, {"measurement": "Threshold (mmHg)", "setting": "SD Male rats [4]; 1 mg/kg, before administration", "value": "48 ± 2", "unit": "mmHg"}, {"measurement": "Threshold (mmHg)", "setting": "SD Male rats [4]; 3 mg/kg, 0.25 hr", "value": "55 ± 2", "unit": "mmHg"}, {"measurement": "Threshold (mmHg)", "setting": "SD Male rats [4]; 3 mg/kg, 0.5 hr", "value": "56 ± 3", "unit": "mmHg"}, {"measurement": "Threshold (mmHg)", "setting": "SD Male rats [4]; 3 mg/kg, 1 hr", "value": "52 ± 4", "unit": "mmHg"}, {"measurement": "Threshold (mmHg)", "setting": "SD Male rats [4]; 3 mg/kg, 2 hr", "value": "49 ± 2", "unit": "mmHg"}, {"measurement": "Threshold (mmHg)", "setting": "SD Male rats [4]; 3 mg/kg, before administration", "value": "48 ± 2", "unit": "mmHg"}, {"measurement": "Change in escape reaction threshold / analgesic effect, in words", "setting": "SD Male rats [4]; 10 mg/kg", "value": "significant increase in the threshold was seen 15 minutes after administration; also recorded: exhibited an analgesic effect but is weaker as compared with the case of morphine 10 mg/kg administration and its duration time was shorter"}, {"measurement": "Threshold (mmHg)", "setting": "SD Male rats [4]; 10 mg/kg, 0.25 hr", "value": "60 ± 2**^,$$ mmHg"}, {"measurement": "Threshold (mmHg)", "setting": "SD Male rats [4]; 10 mg/kg, 0.5 hr", "value": "56 ± 3", "unit": "mmHg"}, {"measurement": "Threshold (mmHg)", "setting": "SD Male rats [4]; 10 mg/kg, 1 hr", "value": "54 ± 2", "unit": "mmHg"}, {"measurement": "Threshold (mmHg)", "setting": "SD Male rats [4]; 10 mg/kg, 2 hr", "value": "53 ± 2", "unit": "mmHg"}, {"measurement": "Threshold (mmHg)", "setting": "SD Male rats [4]; 10 mg/kg, before administration", "value": "48 ± 2", "unit": "mmHg"}]}
